Experimental data published in patent US11352350B2, “IRAK degraders and uses thereof” (Kymera Therapeutics, Inc., priority 2018, dated 2022).

Experiments:
IRAK4 [1] = biological target: T1, IRAK4 (Homo sapiens (Human), UniProt Q9NWZ3); test: hPBMC IRAK4 degradation flow assay; assay type: cell-based; details: hPBMC monocyte
Method: hPBMC IRAK4 degradation flow assay. Frozen PBMCs were thawed into RPMI with 10% FBS and allowed to recover. On the same day as thawed, PBMCs were plated in 96 well plate, 90 uL per well. Compound plates were prepared and a 10 point, 5-fold dilution was performed with a final DMSO concentration of 0.1%. Compound 10 μL per well was added, sealed and incubated at 37° C., 5% C02 for 20 hours (for 4 hour treatment, compounds were prepared and added the following day). […] Cells were spun down and washed two times with PBS/0.5% BSA, aspirated to pellet and placed into −80° C. freezer until further processing for flow. On the flow run day, PBMC plates were thawed and samples were transferred to PCR plates. The pre-perm staining cocktail (CD3 Ax488/CD8 BUV805/CD14 BUV395/CD16/56 BV711/CD19 BV785) was added to samples and incubated for 30 minutes at room temperature. Samples were washed two times and permeabilized with methanol for 10 minutes at 4° C. […] Samples were washed two times with PBS/BSA and run on a BD LSRFortessa. Mononuclear cells are gated by SSCH/FSCH and single cells. Monocytes are then gated through CD14 positive gate and lymphocytes are gated through CD14 negative gate. To determine absolute DC50s and max degradation values, MFI values were normalized to DMSO max and 20 hour 10 μM min control. Twenty hour dose curves were calculated using a 4 parameter logistic regression curve fit, no constraints (Top doses were removed if hook effects were observed and the bottom was constrained to 0).

OCI-LY10 = test: CTG Cell Viability Assay - OCI-LY10; assay type: cell-based, human; details: Homo sapiens, OCI-Ly10, 96 h, OCI-LY10, 4 days; read-out: CTG Cell Viability Assay - OCI-LY10: Average external-IC50
Method in brief: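 Viability read by CellTiter-Glo luminescence after 4 days at 37° C under 5% CO2 with compound (top 10 μM final, 1:3 steps, 9 doses, DMSO 0.2%). Three-parameter logistic fit gave IC50.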

IRAK4 [2] = biological target: T1, IRAK4; test: IRAK4 MSD degradation in OCI-LY10; assay type: cell-based
Method in brief: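 Remaining IRAK4 quantified by electrochemiluminescent MSD sandwich assay with two anti-IRAK4 antibodies. Compounds were dosed as 8 concentrations in 1:3 steps from a 1 to 10 μM final top on OCI-LY10 cells, incubated 4 to 24 h at 37° C. under 5% CO2. DC50 fitted with a three-parameter logistic curve.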

[3] = 20 hr, flow assay, read-out: IRAK4 degradation in hPBMC monocyte at 20 hr: Average external Abs DC50
[4] = OCI-LY10, 4 hrs, read-out: IRAK4 MSD degradation in OCI-LY10 at 4 hrs: DC50
[5] = OCI-LY10, 24 hrs, read-out: IRAK4 MSD degradation in OCI-LY10 at 24 hrs: DC50
[6] = 20 hrs, read-out: IRAK4 degradation in hPBMC monocyte: DC50

T1 sequence (Q9NWZ3 whole entry): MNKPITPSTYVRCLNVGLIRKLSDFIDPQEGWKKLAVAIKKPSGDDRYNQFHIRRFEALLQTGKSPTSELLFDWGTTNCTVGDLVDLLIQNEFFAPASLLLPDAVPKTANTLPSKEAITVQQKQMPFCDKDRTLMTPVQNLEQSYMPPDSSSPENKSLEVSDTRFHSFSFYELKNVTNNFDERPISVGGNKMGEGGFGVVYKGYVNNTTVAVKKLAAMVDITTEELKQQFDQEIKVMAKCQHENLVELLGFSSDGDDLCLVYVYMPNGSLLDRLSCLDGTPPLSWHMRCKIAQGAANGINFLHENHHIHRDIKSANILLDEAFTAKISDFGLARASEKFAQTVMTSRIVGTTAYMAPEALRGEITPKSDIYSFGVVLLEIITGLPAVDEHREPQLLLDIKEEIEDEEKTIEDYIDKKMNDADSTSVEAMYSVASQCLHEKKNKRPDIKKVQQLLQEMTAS

SMILES	DC50 (IRAK4 [1]; [3]) [nM]	IC50 (OCI-LY10) [nM]	DC50 (IRAK4 [2]; [4]) [nM]	DC50 (IRAK4 [2]; [5]) [nM]	DC50 (IRAK4 [1]; [6]) [nM]
Cn1c(=O)n(C2CCC(=O)NC2=O)c2cccc(C(=O)N3CCC(OC[C@H]4CC[C@H](n5cc(NC(=O)c6cnn7ccc(N8C[C@H]9C[C@@H]8CO9)nc67)c(C(F)F)n5)CC4)CC3)c21 (stereo partly drawn) [I-427]	100 to 1000	–	–	–	–
Cn1c(=O)n(C2CCC(=O)NC2=O)c2cccc(CN3CC4(CCN(C(=O)[C@H]5CC[C@H](n6cc(NC(=O)c7cnn8ccc(N9C[C@H]%10C[C@@H]9CO%10)nc78)c(C(F)F)n6)CC5)CC4)C3)c21 (stereo partly drawn) [I-429]	< 10	–	–	–	–
Cn1c(=O)n(C2CCC(=O)NC2=O)c2cccc(CCCN3CCC4(CC3)CCN(C(=O)C3CCC(n5cc(NC(=O)c6cnn7ccc(N8C[C@H]9C[C@@H]8CO9)nc67)c(C(F)F)n5)CC3)CC4)c21 (stereo partly drawn) [I-435]	< 10	–	–	–	–
Cn1c(=O)n(C2CCC(=O)NC2=O)c2cccc(CCCCC3CCN(Cc4ccc(-n5cc(NC(=O)c6cnn7ccc(N8C[C@H]9C[C@@H]8CO9)nc67)c(C(F)F)n5)cc4)CC3)c21 (stereo partly drawn) [I-436]	100 to 1000	–	–	–	–
O=C1CCC(N2C(=O)c3cccc(NCCCCC[C@@H]4CN(C[C@H]5CC[C@H](n6cc(NC(=O)c7cnn8ccc(N9C[C@H]%10C[C@@H]9CO%10)nc78)c(C(F)F)n6)CC5)CCO4)c3C2=O)C(=O)N1 (stereo partly drawn) [I-460]	–	50 to 100	100 to 1000	10 to 100	–
O=C1CCC(N2C(=O)c3cccc(NCC4CC5(C4)CN(C[C@H]4CC[C@H](n6cc(NC(=O)c7cnn8ccc(N9C[C@H]%10C[C@@H]9CO%10)nc78)c(C(F)F)n6)CC4)C5)c3C2=O)C(=O)N1 (stereo partly drawn) [I-461]	–	< 50	100 to 1000	–	–
O=C1CCC(N2C(=O)c3cccc(NCC4CC5(CCN(Cc6ccc(-n7cc(NC(=O)c8cnn9ccc(N%10C[C@H]%11C[C@@H]%10CO%11)nc89)c(C(F)F)n7)cc6)CC5)C4)c3C2=O)C(=O)N1 (stereo partly drawn) [I-462]	–	< 50	100 to 1000	> 1000	–
CN(C[C@H]1CC[C@H](n2cc(NC(=O)c3cnn4ccc(N5C[C@H]6C[C@@H]5CO6)nc34)c(C(F)F)n2)CC1)[C@H]1CC[C@H](Nc2cccc3c2C(=O)N(C2CCC(=O)NC2=O)C3=O)CC1 (stereo partly drawn) [I-463]	–	100 to 500	10 to 100	< 10	–
Cn1c(=O)n(C2CCC(=O)NC2=O)c2cccc(CCCOC3CCN(C[C@H]4CC[C@H](n5ncc(NC(=O)c6cnn7ccc(N8CCOCC8)nc67)c5C(F)F)CC4)CC3)c21 (stereo partly drawn) [I-468]	–	–	100 to 1000	–	100 to 1000
Cn1c(=O)n(C2CCC(=O)NC2=O)c2cccc(CCCOCCCC(CNC[C@H]3CC[C@H](n4cc(NC(=O)c5cnn6ccc(N7C[C@H]8C[C@@H]7CO8)nc56)c(C(F)F)n4)CC3)C(=O)O)c21 (stereo partly drawn) [I-470]	–	–	100 to 1000	–	100 to 1000
O=C1CCC(N2C(=O)c3cccc(NC[C@H]4CC[C@H](OC5CCN(C[C@H]6CC[C@H](n7cc(NC(=O)c8cnn9ccc(N%10CCOCC%10)nc89)c(C(F)F)n7)CC6)CC5)CC4)c3C2=O)C(=O)N1 (stereo partly drawn) [I-473]	–	< 50	10 to 100	< 10	–
O=C1CCC(N2C(=O)c3cccc(NCCOCCCN4CCN(c5ncc(-n6cc(NC(=O)c7cnn8ccc(N9C[C@H]%10C[C@@H]9CO%10)nc78)c(C(F)F)n6)cn5)CC4)c3C2=O)C(=O)N1 (stereo partly drawn) [I-474]	–	< 50	100 to 1000	10 to 100	–
CN(CCCN1CCO[C@H](CNc2cccc3c2C(=O)N(C2CCC(=O)NC2=O)C3=O)C1)C[C@H]1CC[C@H](n2cc(NC(=O)c3cnn4ccc(N5C[C@H]6C[C@@H]5CO6)nc34)c(C(F)F)n2)CC1 (stereo partly drawn) [I-475]	–	< 50	10 to 100	< 10	–
CN(Cc1ccc(-n2cc(NC(=O)c3cnn4ccc(N5CCOCC5)nc34)c(C(F)F)n2)cc1)[C@H]1CC[C@H](Nc2cccc3c2C(=O)N(C2CCC(=O)NC2=O)C3=O)CC1 (stereo partly drawn) [I-476]	–	> 1000	10 to 100	10 to 100	–
CN(Cc1ccc(OCCCNc2cccc3c2C(=O)N(C2CCC(=O)NC2=O)C3=O)nc1)C[C@H]1CC[C@H](n2cc(NC(=O)c3cnn4ccc(N5CCOCC5)nc34)c(C(F)F)n2)CC1 (stereo partly drawn) [I-477, N-(3-(difluoromethyl)-1-((1r,4r)-4-((((6-(3-((2-(2,6-dioxopiperidin-3-yl)-1,3-dioxoisoindolin-4-yl)amino)propoxy)pyridin-3-yl)methyl)(methyl)amino)methyl)cyclohexyl)-1H-pyrazol-4-yl)-5-morpholinopyrazolo[1,5-a] pyrimidine-3-carboxamide]	–	500 to 1000	10 to 100	10 to 100	–
CN(CC1CCC(n2cc(NC(=O)c3cnn4ccc(C5CCOCC5)nc34)c(C(F)F)n2)CC1)[C@H]1CC[C@H](Nc2cccc3c2C(=O)N(C2CCC(=O)NC2=O)C3=O)CC1 (stereo partly drawn) [I-478]	–	> 1000	100 to 1000	10 to 100	–
O=C1CCC(N2C(=O)c3cccc(NCC4CCN(Cc5ccc(-n6cc(NC(=O)c7cnn8ccc(N9C[C@H]%10C[C@@H]9CO%10)nc78)c(C(F)F)n6)cc5)CC4)c3C2=O)C(=O)N1 (stereo partly drawn) [I-489]	–	< 50	100 to 1000	> 1000	–
CN(CC1(CNc2cccc3c2C(=O)N(C2CCC(=O)NC2=O)C3=O)CCC1)C[C@H]1CC[C@H](n2cc(NC(=O)c3cnn4ccc(N5C[C@H]6C[C@@H]5CO6)nc34)c(C(F)F)n2)CC1 (stereo partly drawn) [I-491]	–	> 1000	100 to 1000	> 1000	–
CN(CCN1CCO[C@@H](CNc2cccc3c2C(=O)N(C2CCC(=O)NC2=O)C3=O)C1)C[C@H]1CC[C@H](n2cc(NC(=O)c3cnn4ccc(N5C[C@H]6C[C@@H]5CO6)nc34)c(C(F)F)n2)CC1 (stereo partly drawn) [I-500]	–	50 to 100	100 to 1000	10 to 100	–
CN(C(=O)c1cnn2ccc(N3CCOCC3)nc12)c1cn([C@H]2CC[C@H](CN3CCC(OCCCNc4cccc5c4C(=O)N(C4CCC(=O)NC4=O)C5=O)CC3)CC2)nc1C(F)F (stereo partly drawn) [I-501]	–	50 to 100	> 1000	> 1000	–
CN(C[C@H]1CC[C@H](n2cc(NC(=O)c3cnn4ccc(NCCC(C)(C)O)nc34)c(C(F)F)n2)CC1)[C@H]1CC[C@H](Nc2cccc3c2C(=O)N(C2CCC(=O)NC2=O)C3=O)CC1 (stereo partly drawn) [I-502]	–	< 50	< 10	< 10	–
CN(C(=O)c1cnn2ccc(N3CCOCC3)nc12)c1cn([C@H]2CC[C@H](CN3CCN(Cc4ccc(COc5cccc6c5CN(C5CCC(=O)NC5=O)C6=O)cc4)CC3)CC2)nc1C(F)F (stereo partly drawn) [I-503]	–	< 50	> 1000	> 1000	–
CN(CCC(C)(C)O)c1ccn2ncc(C(=O)Nc3cn([C@H]4CC[C@H](CN(C)[C@H]5CC[C@H](Nc6cccc7c6C(=O)N(C6CCC(=O)NC6=O)C7=O)CC5)CC4)nc3C(F)F)c2n1 (stereo partly drawn) [I-504]	–	100 to 500	> 1000	10 to 100	–
O=C1CCC(N2C(=O)c3cccc(N[C@H]4C[C@H](OC5CCN(C[C@H]6CC[C@H](n7cc(NC(=O)c8cnn9ccc(N%10C[C@H]%11C[C@@H]%10CO%11)nc89)c(C(F)F)n7)CC6)CC5)C4)c3C2=O)C(=O)N1 (stereo partly drawn) [I-505]	–	> 1000	10 to 100	< 10	–
O=C1CCC(N2C(=O)c3cccc(N[C@H]4C[C@H](OC5CCN(C[C@H]6CC[C@H](n7cc(NC(=O)c8cnn9ccc(N%10CCOCC%10)nc89)c(C(F)F)n7)CC6)CC5)C4)c3C2=O)C(=O)N1 (stereo partly drawn) [I-506]	–	500 to 1000	10 to 100	< 10	–
CN(C[C@H]1OC[C@H](n2cc(NC(=O)c3cnn4ccc(N5C[C@H]6C[C@@H]5CO6)nc34)c(C(F)F)n2)CO1)C1CCN(Cc2cccc3c2n(C)c(=O)n3C2CCC(=O)NC2=O)CC1 (stereo partly drawn) [I-507, N-[3-(difluoromethyl)-1-[2-[[[1-[[1-(2,6-dioxo-3-piperidyl)-3-methyl-2-oxo-benzimidazol-4-yl]methyl]-4-piperidyl]-methyl-amino]methyl]-1,3-dioxan-5-yl]pyrazol-4-yl]-5-[(1R,4R)-2-oxa-5-azabicyclo [2.2.1]heptan-5-yl] pyrazolo[1,5-a] pyrimidine-3-carboxamide]	–	–	–	–	< 10
C[C@@H](CCNc1cccc2c1C(=O)N(C1CCC(=O)NC1=O)C2=O)OC1CCN(C[C@H]2CC[C@H](n3cc(NC(=O)c4cnn5ccc(N6C[C@H]7C[C@@H]6CO7)nc45)c(C(F)F)n3)CC2)CC1 (stereo partly drawn) [I-551]	–	< 50	100 to 1000	–	–
O=C1CCC(N2C(=O)c3cccc(NCC4CCC5(CC4)CN(C[C@H]4CC[C@H](n6cc(NC(=O)c7cnn8ccc(N9C[C@H]%10C[C@@H]9CO%10)nc78)c(C(F)F)n6)CC4)C5)c3C2=O)C(=O)N1 (stereo partly drawn) [I-552]	–	< 50	100 to 1000	–	–
